Data from US20040005294A1, “IGFBP-3 in the diagnosis and treatment of cancer” (priority 2002, published 2004).

Assays:
Format in all cases: cell-based, human
[1] = system: HB56B cells; assay: MTT proliferation assay, HB56B cells; conditions: 10^−9 M to 10^−7 M, 1-3 days
Method: (§1) To measure the effects of deguelin on cell proliferation, NHBE, 1799, 1198, 1170-1, and HB56B cells were plated at concentrations of 2×10^3 to 4×10^3 cells/well in 96-well plates. The next day, cells were treated with either 0.1% DMSO as a diluent control or various concentrations of deguelin (final DMSO concentration=0.1%). At the end of the assay time period, cell proliferation was measured by the 3-(4,5-dimethylthiazol-2-yl)-2,5-diphenyltetrazolium bromide (MTT) assay as described (Lee et al., 2002). Six replicate wells were used for each analysis, and data from replicate wells are presented as means with 95% confidence intervals (CIs). For some experiments, the drug concentration required to inhibit cell growth by 50% (IC50) was determined by interpolation from dose-response curves. At least three independent experiments were performed.

[2] = system: 1799 cells; assay: Apoptosis by APO-BrdU (modified TUNEL) flow cytometry, 1799 cells
Method: (§2) NHBE, premalignant (1799 and 1198), and malignant (1170-1) HBE (2×10^6) cells were exposed to various doses of deguelin or to DMSO (0.1%) for 3 days. Apoptosis was assessed by morphology, by a flow cytometry-based, modified terminal deoxynucleotidyl transferase dUTP nick end labeling (TUNEL) assay, and by the detection of fragmented DNA. For morphology, live cells were observed by light microscopy using a ×100 objective. For TUNEL analysis, both adherent and nonadherent cells were harvested and pooled, fixed with 1% paraformaldehyde and 70% ethanol, and processed using the APO-BrdU staining kit (Phoenix Flow Systems, San Diego, Calif.), a modified TUNEL assay, as described (Lee et al., 2002). Cells treated with DMSO were used to gate the control nonapoptotic populations and as a reference for cells treated with deguelin. An internal control (HL-60 cells treated with camptothecin to induce apoptosis) provided in the apoptosis detection kit was also used to ensure that the TUNEL reaction was occurring during the staining procedure. For the detection of fragmented nucleosomal DNA, cells were processed using the TACS apoptotic DNA laddering kit (Trevigen Inc., Gaithersburg, Md.), according to the manufacturer's recommended protocol.
(§3) To determine whether deguelin-induced antiproliferative effects on premalignant HBE cells were mediated through the inhibition of the PI3K/Akt pathway, 2×10^5 1799 cells/well or 1×10 ^6 squamous HBE cells/well in six-well plates were infected with 5×10 ^3 particles/cell of a control virus (Ad5CMV) or with 1×10^3 or 5×10^3 particles/cell of Ad5CMV-MyrAkt-HA, an adenoviral vector that expresses a constitutively active Akt. (MyrAkt) in KSFM. After 1 day of infection, cells were treated with 10^−7M or 10^−6M deguelin, 2×10^−6 M or 4×10^−6M N-(4-hydroxyphenyl)retinamide (4-HPR), or 0.1% DMSO as a control and then incubated for 1 or 2 days. Apoptosis was analyzed using the APO-BrdU staining kit for TUNEL, Western blot analyses for caspase-3, and the cleavage of PARP.

[3] = system: NHBE cells; assay: Cell cycle analysis by flow cytometry, NHBE cells; conditions: 10^−7 M, 3 days
Method: (§4) NHBE and 1799 cells were plated at a concentration of 2×10^5 cells/well in six-well plates. The next day, cells were treated with deguelin (various concentrations) or DMSO (0.1%) for 3 days to achieve maximal antiproliferative effects (determined from growth curves). All cells (nonadherent and adherent) were harvested, fixed with 1% paraformaldehyde and 70% ethanol, stained with 50 μg/mL propidium iodide, and subjected to flow cytometric analysis to determine the percentage of cells in specific phases of the cell cycle (G1, S, and G2/M) as described (Sun et al., 1997). Flow cytometric analysis was performed using a Coulter EPICS Profile II flow cytometer (Coulter Corp., Miami, Fla.) equipped with a 488-nm argon laser. Approximately 10 000 events (cells) were evaluated for each sample. Two independent experiments were performed and one is presented.

[4] = system: NHBE cells; assay: Apoptosis by TUNEL and DNA fragmentation, NHBE cells
Method: as §2

[5] = system: 1799, 1198 and 1170-1 cells; assay: Cell cycle analysis by flow cytometry, HBE cell lines; conditions: 10^−8 M or 10^−7 M, 3 days
Method: as §4

[6] = system: 1198 and 1170-1 cells; assay: Apoptosis by TUNEL and DNA fragmentation, 1198 and 1170-1 cells; conditions: treatment for 1 day
Method: as §2, with “NHBE, premalignant (1799 and 1198), and malignant (1170-1) HBE (2×10^6) cells were exposed to various doses of deguelin or to DMSO (0.1%) for 3 days.” left out

[7] = system: 1799 cells; assay: MTT proliferation assay, 1799 cells
Method: as §1, §3

[8] = system: PI3K in 1799 cells; assay: PI3K assay of immunoprecipitates; conditions: 10^−7 M, IGF-I activated
Method: Approximately 5×10^6 1799 cells were treated with 10^−7 M deguelin or 0.1% DMSO for different time periods (0-24 h) in the absence of any additional stimulatory growth factors. PI3K in these cells was then activated by treatment with 50 ng/mL IGF-I for 15 min. Cells were lylsed, and PI3K was immunoprecipitated from 500 μg of total cell extracts with 5 μL of rabbit antibody against full-length rat p85 PI3K (Upstate Biotechnology, Inc.), which coprecipitates the p110 catalytic subunit of PI3K, and 20 μL of protein A-sepharose beads (Amersham Pharmacia Biotech). PI3K activity in the immunoprecipitates was analyzed using bovine brain extract (Type I; Sigma-Aldrich), which contains a mixture of phosphatidylinositol, phosphatidylinositol 4-phosphate, and phosphatidylinositol 4,5-bisphosphate as a substrate, as described (Hsu et al., 2000). Jurkat cell lysates (Upstate Biotechnology, Inc.) and IGF-I-activated […] NSCLC cell lysates were used as positive controls.

COc1cc2c(cc1OC)[C@@H]1C(=O)c3ccc4c(c3O[C@@H]1CO2)C=CC(C)(C)O4 [deguelin, Deguelin]
effect on growth of HB56B cells [1]: Dose- and time-dependent growth-inhibitory effects | cells undergoing apoptosis ([2]; 10^−7 M, 2 days, 1799 cells infected with Ad5CMV-MyrAkt-HA): less than 10% | cells undergoing apoptosis ([2]; 10^−7 M, 2 days, 1799 cells uninfected or infected with control adenovirus): approximately 40% | cells undergoing apoptosis ([2]; 10^−7 M, 3 days): 92.2% | cells undergoing apoptosis ([2]; 10^−8 M, 3 days): 68.5% | cells undergoing apoptosis ([2]; 10^−9 M, 3 days): approximately 3.3% | cell cycle distribution [3]: No detectable cell cycle changes | apoptosis (TUNEL, DNA fragmentation) [4]: neither a TUNEL-positive cell population nor fragmented DNA | cell cycle distribution [5]: accumulated in the G2/M phase | apoptotic events [6]: did not induce detectable apoptotic events | reversibility of effects on cell growth ([7]; 10^−7 M for 1, 2 or 3 days, then 5 days without deguelin): irreversible | decrease in cell growth ([7]; 10^−7 M, 1 day): 67.1% | effect on growth ([7]; 1799 cells infected with Ad5CMV-MyrAkt-HA, 10^−6 M): did not decrease the growth | decrease in growth relative to untreated control ([7]; 1799 cells uninfected or infected with 5×10^3 particles/cell Ad5CMV, 10^−7 M, 2 days): 54% | activity at 0.1 µM ([7]; Homo sapiens, read-out: growth as percent of control cell growth): 85% | decrease in PI3K activity compared with untreated cells [8]: approximately 55%
